Values quoted from earlier work as cited in patent US9821060B2, “Heat-sensitive nanoparticle system” (FONDAZIONE ISTITUTO ITALIANO DI TECNOLOGIA, priority 2013, dated 2017).

Conditions: in water

half-life temperature at 10 hours: 57 °C
SMILES: CC(C)(N=NC(C)(C)C(=O)NCCC(=O)O)C(=O)NCCC(=O)O.O [VA057, 2,2′Azobis-[N-(2-carboxyethyl)-2-methylpropionamide]hydrate]
